The values that follow come from US7662971B2, “Inhibitors of fatty acid amide hydrolase” (The Scripps Research Institute, priority 2002, dated 2010).

The structures appear in SMILES notation.

The term melting point denotes the temperature, or range, at which the solid turns liquid.

The target in one data set is T1, FAAH (Rattus norvegicus, UniProt P97612).
T1 construct: using a solubilized liver plasma membrane extract containing FAAH; from tissue; host or cells: liver plasma membrane extract (solubilized)
T1 sequence (P97612 1-579): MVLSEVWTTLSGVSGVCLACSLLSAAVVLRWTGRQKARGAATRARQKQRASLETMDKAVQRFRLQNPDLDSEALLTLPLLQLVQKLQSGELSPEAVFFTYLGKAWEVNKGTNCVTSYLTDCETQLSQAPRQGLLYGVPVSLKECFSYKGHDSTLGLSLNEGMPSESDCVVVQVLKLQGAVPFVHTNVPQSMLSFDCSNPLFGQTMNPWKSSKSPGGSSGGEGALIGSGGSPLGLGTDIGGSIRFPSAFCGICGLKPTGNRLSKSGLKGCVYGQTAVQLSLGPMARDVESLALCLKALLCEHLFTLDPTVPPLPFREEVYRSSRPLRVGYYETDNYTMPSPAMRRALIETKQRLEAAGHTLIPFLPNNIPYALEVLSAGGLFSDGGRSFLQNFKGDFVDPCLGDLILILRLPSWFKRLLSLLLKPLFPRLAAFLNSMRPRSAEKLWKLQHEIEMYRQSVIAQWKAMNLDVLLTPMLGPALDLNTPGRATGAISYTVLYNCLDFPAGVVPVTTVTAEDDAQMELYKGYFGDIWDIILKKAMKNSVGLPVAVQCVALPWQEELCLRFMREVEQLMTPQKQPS
Description: FAAH enzyme inhibition, breakdown of 14C-oleamide to oleic acid. The format is biochemical. To be noted: 5-(2-pyridyl)-substituted oxazole head group, FIG. 4. The procedure: All enzyme assays were performed at 20-23° C. using a solubilized liver plasma membrane extract containing FAAH in a reaction buffer of 125 mM Tris, 1 mM EDTA, 0.2% glycerol, 0.02% Triton X-100, 0.4 mM HEPES, pH 9.0 buffer (M. P. Patricelli, et al., (1998) Bioorg. Med. Chem. Lett. 8, 613-618; and J. E. Patterson, et al., (1996) J. Am. Chem. Soc. 118, 5938-5945). The initial rates of hydrolysis were monitored by following the breakdown of ^14C-oleamide to oleic acid as previously described (B. F. Cravatt, et al., (1995) Science 268, 1506-1509; and M. P. Patricelli, et al., (1998) Bioorg. Med. Chem. Lett. 8, 613-618). The inhibition was reversible, non time-dependent and linear least squares fits were used for all reaction progress curves and R^2 values were consistently >0.97. IC50 values were determined from the inhibition observed at 3-5 different inhibitor concentrations (from three or more trials at each inhibitor concentration) using the formula IC50=[I]/[(K0/Ki)−1], where K0 is the control reaction rate without inhibitor and Ki is the rate with inhibitor at concentration [I] (K. Conde-Frieboes, et al., (1996) J. Am. Chem. Soc. 118, 5519-5525). Ki values were determined by the Dixon method (x-intercepts of weighted linear fits of [I] versus 1/rate plots at constant substrate concentration, which were converted to Ki values using the formula Ki=−xint/[1+[S]/Km]).
For the compound `CCCCCCCCCCCC(=O)c1ncc(-c2ccccn2)o1` [Compound 185, 1-(5-(Pyridin-2-yl)oxazol-2-yl)dodecan-1-one], the “difference in Ki between compounds 185 and 200” value is listed as “factor of two”.

With `O=C(CCCCCCc1ccccc1)c1ncc(-c2ccccn2)o1` [Compound 200, 1-Oxo-1-[5-(2-pyridyl)oxazol-2-yl]-7-phenylheptane], the “difference in Ki between compounds 185 and 200” value is listed as “factor of two”.

The test system of a further data set is mice. Description: hot plate test (thermal pain). The format is in vivo. To be noted: 10 mg/kg, i.p., 60 minutes following injection, p<0.01. The procedure: FIG. 12 illustrates a bar graph showing the reduced thermal pain responses 60 minutes following the injection of OL-135 (10 mg/kg, i.p.). This test is the hot plate test and there is no effect with the vehicle and there is some delay after administration of the OL-135. [p<0.01; N=12 mice per group; results shown as means ±S.E.]
The mice received an i.p. injection of vehicle or SR 141716A (3 mg/kg); 10 minutes later all subjects were given OL-135 (10 mg/kg, i.p.) and then evaluated in the hot plate test one hour after the second injection. [p<0.001 for OL-135-treated mice that were pretreated with vehicle versus either their pre-injection baseline latencies or OL-135 treated mice that were pretreated with SR 141716A. Results are shown as means ±S. E. N=6 mice/group.]
On the technique in general: In hot-plate and tail-flick tests a longer latency is read as antinociception.
As to `O=C(CCCCCCc1ccccc1)c1ncc(-c2ccccn2)o1` [OL-135], the “thermal pain response, hot plate test” value is recorded as “some delay”.

The same data set, now with this note: SR 141716A 3 mg/kg i.p. 10 minutes before OL-135 10 mg/kg i.p., one hour after second injection.
For the compound `Cc1c(C(=O)NN2CCCCC2)nn(-c2ccc(Cl)cc2Cl)c1-c1ccc(Cl)cc1` [SR 141716A, reference compound], the “effect on OL-135 analgesia, hot plate test” value is reported as “blocking the analgesic effects of OL-135”.

Test system in another data set: not given
Assay: not given
Settings: not given
`C=CCCCCCCCC(=O)c1ncc(-c2ccccn2)o1` [Compound 203, 1-Oxo-1-[5-(2-pyridyl)oxazol-2-yl]-9-decene] came in with a melting point of 55 to 57 °C.

`CCCCCCCCCCCCCC(=O)c1ncc(-c2ccccn2)o1` [Compound 184, 1-(5-(Pyridin-2-yl)oxazol-2-yl)tetradecan-1-one] displayed a melting point of 79 to 80 °C.

Turning to `CCCCCCC(=O)c1ncc(-c2ccccn2)o1` [Compound 190, 1-(5-(Pyridin-2-yl)oxazol-2-yl)heptan-1-one], the melting point was 52 °C.

Consider `CCCCCCCCCCCCCCCCCC(=O)c1ncc(-c2ccccn2)o1` [Compound 182, 1-(5-(Pyridin-2-yl)oxazol-2-yl)octadecan-1-one], for which the melting point is 86 to 87 °C.

On to `CCCCCC(=O)c1ncc(-c2ccccn2)o1` [Compound 191, 1-(5-(Pyridin-2-yl)oxazol-2-yl)hexan-1-one], for which the melting point was 49 to 50.5 °C.

As to `CCCCC(=O)c1ncc(-c2ccccn2)o1` [Compound 192, 1-(5-(pyridin-2-yl)oxazol-2-yl)pentan-1-one], the melting point was 36 to 37 °C.

Regarding `O=C(CCCCc1ccccc1)c1ncc(-c2ccccn2)o1` [Compound 198, 1-Oxo-1-[5-(2-pyridyl)oxazol-2-yl]-5-phenylpentane], the melting point lay in the range of 49 to 51 °C.

For the compound `CCCCCCCCC(=O)c1ncc(-c2ccccn2)o1` [Compound 188, 1-(5-(Pyridin-2-yl)oxazol-2-yl)nonan-1-one], the melting point lay in the range of 56 to 57 °C.

`O=C(CCCCCc1ccccc1)c1ncc(-c2ccccn2)o1` [Compound 199, 1-Oxo-1-[5-(2-pyridyl)oxazol-2-yl]-6-phenylhexane] yielded a melting point of 43.5 to 45.5 °C.

Turning to `CCCCCCCCC#CCCCCCCCC(=O)c1ncc(-c2ccccn2)o1` [Compound 205, 1-Oxo-1-[5-(2-pyridyl)oxazol-2-yl]-9-octadecyne], the melting point amounted to 41 °C.

Take `CCCCCCCCCCCCCCCC(=O)c1ncc(-c2ccccn2)o1` [Compound 183, 1-(5-(Pyridin-2-yl)oxazol-2-yl)hexadecan-1-one]: the melting point was 78 to 80 °C.

The compound `CCCC(=O)c1ncc(-c2ccccn2)o1` [Compound 193, 1-[5-(Pyridin-2-yl)oxazol-2-yl]butan-1-one] showed a melting point of 54 to 55 °C.

For the compound `CCCCCCCCCC(=O)c1ncc(-c2ccccn2)o1` [Compound 187, 1-(5-(Pyridin-2-yl)oxazol-2-yl)decan-1-one], the melting point was in the range of 56 to 57 °C.

The compound `C#CCCCCCCCC(=O)c1ncc(-c2ccccn2)o1` [Compound 204, 1-Oxo-1-[5-(2-pyridyl)oxazol-2-yl]-9-decyne] gave a melting point of 64.5 to 65.5 °C.

As to `CCCCCCCCCCCC(=O)c1ncc(-c2ccccn2)o1` [Compound 185, 1-(5-(Pyridin-2-yl)oxazol-2-yl)dodecan-1-one], the melting point is 73 to 74 °C.

In turn, `CCCCCCCC(=O)c1ncc(-c2ccccn2)o1` [Compound 189, 1-(5-(Pyridin-2-yl)oxazol-2-yl)octan-1-one] showed a melting point of 56 °C.

Regarding `CCC(=O)c1ncc(-c2ccccn2)o1` [Compound 194, 1-[5-(Pyridin-2-yl)oxazol-2-yl]propan-1-one], the melting point lay in the range of 65 to 67 °C.

Take `O=C(CCCCCCCc1ccccc1)c1ncc(-c2ccccn2)o1` [Compound 201, 1-Oxo-1-[5-(2-pyridyl)oxazol-2-yl]-8-phenyloctane]: the melting point lay in the range of 72 to 73 °C.

Another data set deals with mice. Description: tail withdrawal / tail immersion test (thermal pain). The format is in vivo. To be noted: 10 mg/kg, i.p., 60 minutes following injection, p<0.001. The procedure:
FIG. 11 illustrates a bar graph showing the reduced thermal pain responses 60 minutes following the injection of OL-135 (10 mg/kg, i.p.). This test is the tail withdrawal test and there is no effect with the vehicle while there is marked delay after administration of the OL-135. [p<0.001; N=12 mice per group; results shown as means ±S.E.]
The mice received an i.p. injection of vehicle or SR 141716A (3 mg/kg); 10 minutes later all subjects were given OL-135 (10 mg/kg, i.p.) and then evaluated in the tail immersion test one hour after the second injection. (p<0.001 for OL-135-treated mice that were pretreated with vehicle versus either their pre-injection baseline latencies or OL-135 treated mice that were pretreated with SR 141716A.) Results are shown as means ±S. E. N=6 mice/group.
For the compound `O=C(CCCCCCc1ccccc1)c1ncc(-c2ccccn2)o1` [OL-135], the “thermal pain response, tail withdrawal test” value is “marked delay”.

Still in this data set, the particulars now being: SR 141716A 3 mg/kg i.p. 10 minutes before OL-135 10 mg/kg i.p., one hour after second injection.
On to `Cc1c(C(=O)NN2CCCCC2)nn(-c2ccc(Cl)cc2Cl)c1-c1ccc(Cl)cc1` [SR 141716A, reference compound], for which the “effect on OL-135 analgesia, tail immersion test” value is on record as “blocking the analgesic effects of OL-135”.
